Relative viability data for 6 cell lines are collected here from the supplement of paper PMC10307832.

Holding throughout (assay): relative viability (nuclei count vs DMSO), 5 days (fraction); higher = more cells survive
Compound in the test “Sorafenib + Trametinib”: CNC(=O)c1cc(Oc2ccc(NC(=O)Nc3ccc(Cl)c(C(F)(F)F)c3)cc2)ccn1 [Sorafenib] + CC(=O)Nc1cccc(-n2c(=O)n(C3CC3)c(=O)c3c(Nc4ccc(I)cc4F)n(C)c(=O)c(C)c32)c1 [Trametinib] (partner 0.02 µM)
The gist of the method: (§1)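 One day after seeding in 1536-well plates, lung cancer cell lines were dosed by pin tool. Dosing was either single-drug or a fixed anchor-drug dose plus five library-drug doses (not always all listed) in √10 steps. After 5 days, nuclei were stained in one fix-and-stain step and counted on 4× images, and relative viability is the nuclei count of treated wells over that of vehicle wells, given as the median of duplicate plates.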

Compound in the test “Sorafenib + Palbociclib”: CNC(=O)c1cc(Oc2ccc(NC(=O)Nc3ccc(Cl)c(C(F)(F)F)c3)cc2)ccn1 [Sorafenib] + CC(=O)c1c(C)c2cnc(Nc3ccc(N4CCNCC4)cn3)nc2n(C2CCCC2)c1=O [Palbociclib] (partner 0.5 µM)
The gist of the method: as §1

Compound in the test “Sorafenib + Foretinib”: CNC(=O)c1cc(Oc2ccc(NC(=O)Nc3ccc(Cl)c(C(F)(F)F)c3)cc2)ccn1 [Sorafenib] + COc1cc2c(Oc3ccc(NC(=O)C4(C(=O)Nc5ccc(F)cc5)CC4)cc3F)ccnc2cc1OCCCN1CCOCC1 [Foretinib] (partner 0.25 µM)
The gist of the method:
as §1

Compound in the test “Sorafenib + Pictilisib”: CNC(=O)c1cc(Oc2ccc(NC(=O)Nc3ccc(Cl)c(C(F)(F)F)c3)cc2)ccn1 [Sorafenib] + CS(=O)(=O)N1CCN(Cc2cc3nc(-c4cccc5[nH]ncc45)nc(N4CCOCC4)c3s2)CC1 [Pictilisib] (partner 1 µM)
The method, boiled down:
as §1

Compound in the test “Sorafenib + Crizotinib”: CNC(=O)c1cc(Oc2ccc(NC(=O)Nc3ccc(Cl)c(C(F)(F)F)c3)cc2)ccn1 [Sorafenib] + C[C@@H](Oc1cc(-c2cnn(C3CCNCC3)c2)cnc1N)c1c(Cl)ccc(F)c1Cl [Crizotinib] (partner 1 µM)
The method, boiled down:
as §1

Regarding 201T, the relative viability in the test with Sorafenib + Trametinib (first compound 0.08 µM) worked out at 0.679; in the test with Sorafenib + Trametinib (first compound 0.253 µM) it was 0.726; with Sorafenib + Trametinib (first compound 2.53 µM), 0.735; with Sorafenib + Trametinib (first compound 8 µM) it was 0.762; with Sorafenib + Palbociclib (first compound 0.08 µM) it was 0.34; with Sorafenib + Palbociclib (first compound 0.253 µM), 0.343. For the same cell line, the relative viability with Sorafenib + Palbociclib (first compound 2.53 µM) came to 0.36; with Sorafenib + Palbociclib (first compound 8 µM), 0.357; in the test with Sorafenib + Foretinib (first compound 0.08 µM) it was 1.23; in the test with Sorafenib + Foretinib (first compound 2.53 µM), 1.11; with Sorafenib + Foretinib (first compound 8 µM), 0.884; with Sorafenib + Pictilisib (first compound 0.08 µM) it was 0.684. Besides, the relative viability with Sorafenib + Pictilisib (first compound 0.253 µM) came to 0.669; in the test with Sorafenib + Pictilisib (first compound 2.53 µM), 0.72; in the test with Sorafenib + Pictilisib (first compound 8 µM) it was 0.65; with Sorafenib + Crizotinib (first compound 0.08 µM) it was 1.03; with Sorafenib + Crizotinib (first compound 0.253 µM), 1.01; with Sorafenib + Crizotinib (first compound 2.53 µM), 1.13. In addition, the relative viability with Sorafenib + Crizotinib (first compound 8 µM) was 1.08.
Turning to NCI-H2228, the relative viability with Sorafenib + Trametinib (first compound 0.08 µM) was found to be 0.802; with Sorafenib + Trametinib (first compound 0.253 µM), 0.377; with Sorafenib + Trametinib (first compound 2.53 µM) it was 0.356; with Sorafenib + Trametinib (first compound 8 µM) it was 0.266; with Sorafenib + Palbociclib (first compound 0.08 µM), 0.692; in the test with Sorafenib + Palbociclib (first compound 0.253 µM), 0.883. Moreover, the relative viability with Sorafenib + Palbociclib (first compound 2.53 µM) is 0.589; with Sorafenib + Palbociclib (first compound 8 µM), 0.517; with Sorafenib + Foretinib (first compound 0.08 µM) it was 0.993; with Sorafenib + Foretinib (first compound 0.253 µM), 0.714; with Sorafenib + Foretinib (first compound 2.53 µM) it was 0.819; with Sorafenib + Foretinib (first compound 8 µM) it was 0.543. The relative viability stood at 0.384 in the test with Sorafenib + Pictilisib (first compound 0.08 µM); 0.375 in the test with Sorafenib + Pictilisib (first compound 0.253 µM); 0.337 with Sorafenib + Pictilisib (first compound 2.53 µM); 0.529 with Sorafenib + Pictilisib (first compound 8 µM); 0.474 with Sorafenib + Crizotinib (first compound 0.08 µM); 0.511 with Sorafenib + Crizotinib (first compound 0.253 µM). Besides, the results for the relative viability with Sorafenib + Crizotinib (first compound 2.53 µM) and in the test with Sorafenib + Crizotinib (first compound 8 µM) were 0.727 and 0.262, respectively.
In the case of LK-2, the relative viability with Sorafenib + Trametinib (first compound 0.08 µM) is 0.78; in the test with Sorafenib + Trametinib (first compound 0.253 µM) it was 0.764; in the test with Sorafenib + Trametinib (first compound 2.53 µM) it was 0.512; with Sorafenib + Trametinib (first compound 8 µM) it was 0.239; in the test with Sorafenib + Palbociclib (first compound 0.08 µM), 0.703; in the test with Sorafenib + Palbociclib (first compound 0.253 µM) it was 0.588. The relative viability with Sorafenib + Palbociclib (first compound 2.53 µM) came to 0.528; with Sorafenib + Palbociclib (first compound 8 µM), 0.542; with Sorafenib + Foretinib (first compound 0.08 µM), 1.06; with Sorafenib + Foretinib (first compound 0.253 µM), 1; in the test with Sorafenib + Foretinib (first compound 2.53 µM), 0.976; in the test with Sorafenib + Foretinib (first compound 8 µM) it was 0.747. The relative viability with Sorafenib + Pictilisib (first compound 0.08 µM) was 0.588; with Sorafenib + Pictilisib (first compound 2.53 µM), 0.722; with Sorafenib + Pictilisib (first compound 8 µM), 0.374; in the test with Sorafenib + Crizotinib (first compound 0.08 µM) it was 0.208; with Sorafenib + Crizotinib (first compound 2.53 µM) it was 0.263; with Sorafenib + Crizotinib (first compound 8 µM), 0.256.
Regarding NCI-H1650, the relative viability with Sorafenib + Trametinib (first compound 0.08 µM) came out at 0.858; with Sorafenib + Trametinib (first compound 0.253 µM) it was 0.499; with Sorafenib + Trametinib (first compound 2.53 µM), 0.752; in the test with Sorafenib + Trametinib (first compound 8 µM), 0.241; in the test with Sorafenib + Palbociclib (first compound 0.08 µM), 0.363; with Sorafenib + Palbociclib (first compound 0.253 µM), 0.493. Further, the relative viability in the test with Sorafenib + Palbociclib (first compound 2.53 µM) was 0.401; in the test with Sorafenib + Palbociclib (first compound 8 µM), 0.26; with Sorafenib + Foretinib (first compound 0.08 µM), 1.43; with Sorafenib + Foretinib (first compound 0.253 µM), 1.24; with Sorafenib + Foretinib (first compound 2.53 µM) it was 1.32; with Sorafenib + Foretinib (first compound 8 µM), 0.365. Also, the relative viability with Sorafenib + Pictilisib (first compound 0.08 µM) is 0.691; in the test with Sorafenib + Pictilisib (first compound 0.253 µM), 0.529; with Sorafenib + Pictilisib (first compound 2.53 µM) it was 0.71; with Sorafenib + Pictilisib (first compound 8 µM) it was 0.308; with Sorafenib + Crizotinib (first compound 0.08 µM), 0.961; with Sorafenib + Crizotinib (first compound 0.253 µM) it was 1.1. Further, the relative viability in the test with Sorafenib + Crizotinib (first compound 2.53 µM) turned out to be 1.01.
Regarding NCI-H647, the relative viability was 0.583 with Sorafenib + Trametinib (first compound 0.08 µM); 0.388 with Sorafenib + Trametinib (first compound 0.253 µM); 0.235 in the test with Sorafenib + Trametinib (first compound 2.53 µM); 0.144 with Sorafenib + Trametinib (first compound 8 µM); 0.373 with Sorafenib + Palbociclib (first compound 0.08 µM); 0.316 with Sorafenib + Palbociclib (first compound 0.253 µM). Moreover, the relative viability amounted to 0.284 with Sorafenib + Palbociclib (first compound 2.53 µM); 0.082 in the test with Sorafenib + Palbociclib (first compound 8 µM); 1.25 with Sorafenib + Foretinib (first compound 0.08 µM); 1 with Sorafenib + Foretinib (first compound 0.253 µM); 0.987 with Sorafenib + Foretinib (first compound 2.53 µM); 0.48 with Sorafenib + Foretinib (first compound 8 µM). The relative viability with Sorafenib + Pictilisib (first compound 0.08 µM) came out at 0.544; with Sorafenib + Pictilisib (first compound 2.53 µM) it was 0.475; with Sorafenib + Pictilisib (first compound 8 µM), 0.374; with Sorafenib + Crizotinib (first compound 0.08 µM), 1.05; with Sorafenib + Crizotinib (first compound 0.253 µM), 0.972; in the test with Sorafenib + Crizotinib (first compound 2.53 µM) it was 0.867. In addition, the relative viability with Sorafenib + Crizotinib (first compound 8 µM) came to 0.395.
With NCI-H460, the relative viability was 0.225 with Sorafenib + Trametinib (first compound 0.08 µM); 0.154 with Sorafenib + Trametinib (first compound 0.253 µM); 0.126 with Sorafenib + Trametinib (first compound 2.53 µM); 0.0388 in the test with Sorafenib + Trametinib (first compound 8 µM); 0.176 with Sorafenib + Palbociclib (first compound 0.08 µM); 0.118 in the test with Sorafenib + Palbociclib (first compound 0.253 µM). The relative viability stood at 0.136 with Sorafenib + Palbociclib (first compound 2.53 µM); 0.137 with Sorafenib + Palbociclib (first compound 8 µM); 0.972 in the test with Sorafenib + Foretinib (first compound 0.08 µM); 0.997 with Sorafenib + Foretinib (first compound 0.253 µM); 0.972 with Sorafenib + Foretinib (first compound 2.53 µM); 0.622 in the test with Sorafenib + Foretinib (first compound 8 µM). In addition, the relative viability with Sorafenib + Pictilisib (first compound 0.253 µM) amounted to 0.442; with Sorafenib + Pictilisib (first compound 2.53 µM), 0.51; with Sorafenib + Pictilisib (first compound 8 µM) it was 0.3; with Sorafenib + Crizotinib (first compound 0.08 µM) it was 1.02; with Sorafenib + Crizotinib (first compound 0.253 µM), 0.777; with Sorafenib + Crizotinib (first compound 2.53 µM) it was 0.918. For the same cell line, the relative viability with Sorafenib + Crizotinib (first compound 8 µM) stood at 0.502.
